Common to all, as to assay type: cell-based
For one assay, the system named is FAS. Kind of assay: Real-Time RT-PCR, FAS gene expression in 3T3-L1. The following applies: 1, 2, 5 and 10 μM; largest decrease at 10 μM. The protocol:
(§1) Real-Time RT-PCR was performed to investigate the effect of trans-ferulic acid (TFA) on transcription factors involved in lipid metabolism at mRNA expression levels. Total RNA was isolated from a control group and each test group treated with various concentrations of TFA (easy-Blue, iNtRon, INC, Daejeon, Korea) and diluted at the same concentration, and cDNA synthesis was carried out using the diluted RNA samples (cDNA reverse transcription kits, Applied Biosystems, CA, USA).
(§2) In brief, after 3T3-L1 preadipocytes were treated with TFA at various concentrations, namely 1, 2, 5 and 10 μM), Real-time qRT-PCR was performed using the primers of Table 9 (CFX96 real-time PCR detection system, Bio-Rad Laboratories, Hercules, Calif., USA). The PCR conditions included denaturation at […] for 3 min, 45 cycles of 95° C. for 5 sec and 60° C. for 20 sec, and heating up to 95° C. (by increasing the temperature at a rate of 0.2° C./15 sec) to terminate the reaction. […] Therefore, the Desalted Salicornia Powder (DSP) containing TFA as an effective component may effectively reduce body fat by inhibiting adipocyte differentiation and lipid droplet formation and may eventually lead to a decrease in body weight, and thus has the potential to be applied as a functional food and feedstuff for preventing and/or treating obesity.
(In qPCR the cycle at which signal appears reflects the starting amount.)

Assay [1] has as its system 3T3-L1 cells. Kind of assay: Oil Red O staining of lipid droplets during adipocyte differentiation. The protocol: The major marker component of the desalted Salicornia powder, trans-ferulic acid (TFA), was evaluated for its inhibitory effect on adipocyte differentiation using 3T3-L1 cells as an in-vitro model of adipocyte differentiation. 3T3-L1 preadipocytes were checked for contamination every eight hours to improve confidence in the experiment. Primary preadipocytes were propagated, and were then induced to differentiate with a culture medium containing 3-isobutyl-1-methylxanthine (IBMX), dexamethasone and insulin. During the differentiation induction, the medium was changed twice every three days. After being induced to differentiate, 3T3-L1 cells were subjected to Oil Red O staining to detect the presence of intracellular lipid droplets. First, the medium was discarded from each well, and cells were fixed with 4% paraformaldehyde. Subsequently, cells were washed with 100% 1,2-propanediol dehydration solution for 5 min and then stained with Oil Red O stain solution. After Oil Red O staining, 85% 1,2-propanediol stain differential solution was added to each well for cell washing. Finally, distilled water was added to each well to prevent stained cells from drying, and cells were observed under a microscope to determine lipid accumulation.

Another assay deals with PPARγ. Kind of assay: Real-Time RT-PCR, PPARγ gene expression in 3T3-L1. The settings on record: 10 μM. The protocol: as §1, §2
Another assay concerns C/EBPα. Kind of assay: Real-Time RT-PCR, C/EBPα gene expression in 3T3-L1. The settings on record: 5 μM and 10 μM. The protocol:
as §1, §2

Assay [2] has as its system 3T3-L1 cells. Kind of assay: Intracellular triglyceride formation during adipocyte differentiation. As for the experimental part:
The major marker component of the desalted Salicornia powder, trans-ferulic acid (TFA), was evaluated for its inhibitory effect on adipocyte differentiation using 3T3-L1 cells as an in-vitro model of adipocyte differentiation. 3T3-L1 preadipocytes were checked for contamination every eight hours to improve confidence in the experiment. Primary preadipocytes were propagated, and were then induced to differentiate with a culture medium containing 3-isobutyl-1-methylxanthine (IBMX), dexamethasone and insulin. During the differentiation induction, the medium was changed twice every three days. In addition, as a marker for adipocyte differentiation, intracellular triglyceride formation was investigated.

A further assay has as its system SREBP-1. Kind of assay: Real-Time RT-PCR, SREBP-1 gene expression in 3T3-L1. The settings on record: 1, 2, 5 and 10 μM; largest decrease at 10 μM. As for the experimental part: as §1, §2

Counter-ions that a name gives are not always drawn.

With `COc1cc(/C=C/C(=O)O)ccc1O` [TFA, trans-ferulic acid], in the assay with FAS, the “FAS gene expression compared to differentiation-induced control (MDI)” value is recorded as “reduced in a dosage-dependent manner”. The “inhibition of lipid droplet formation compared to differentiation-induced control (MDI)” value in the assay on 3T3-L1 cells [1] (5 μM and 10 μM) was “remarkably significant inhibition”. Moreover, the “adipocyte differentiation and lipid droplet formation (Oil Red O)” value in the assay on 3T3-L1 cells [1] (within the used concentrations) is “inhibit adipocyte differentiation and lipid droplet formation in a dosage-dependent manner”. The PPARγ gene expression entry in the assay with PPARγ was “significantly reduced”. In addition, in the assay on C/EBPα, the “C/EBPα gene expression compared to differentiation-induced control (MDI)” value is given as “significantly reduced in a dosage-dependent manner”. The “triglyceride formation compared to differentiation-induced control (MDI)” value in the assay on 3T3-L1 cells [2] (5 μM and 10 μM) was “remarkably significantly inhibited”. The intracellular triglyceride formation entry in the assay with 3T3-L1 cells [2] (1, 2, 5 and 10 μM) is recorded as “reduced intracellular triglyceride formation in a dosage-dependent manner”. In addition, in the assay with SREBP-1, the “SREBP-1 gene expression compared to differentiation-induced control (MDI)” value is given as “reduced in a dosage-dependent manner”.

These data come from patent US20190142046A1, “FUNCTIONALLY REINFORCED DESALTED NUTRITIONAL COMPOSITIONS FROM HALOPHYTES AND PREPARATION METHOD THEREOF” (PHYTO CORPORATION, priority 2016, published 2019).
